In patent publication US4262127A, “3-Alkoxy-2-alkylisothiazolium salts and their derivatives” (Givaudan Corporation, priority 1979, dated 1981):
Read-outs that look alike come from different tables or passages of the source.

Test system: Pseudomonas aeruginosa
Experiment: prevention of microbial growth in cutting oil emulsions (Kutwell 30)
Type: cell-based
Conditions: 3.3% cutting oil emulsion (Kutwell 30), 28° C., read-out: concentration required to prevent microbial growth
Description: In running these tests, two-fold serial dilutions of 6% solutions of the compound in dimethylformamide was added to 3.3% cutting oil emulsions. The emulsions were prepared by diluting with water a commercially available cutting oil concentrate. The emulsions were inoculated with a culture of Pseudomonas aeruginosa and incubated at 28° C. on a rotary shaker. At weekly intervals, the emulsions were examined for bacteria by conventional streakplate methods. The emulsions were then reinoculated with Pseudomonas aeruginosa and reincubated.

[1] = 168 h, incubation period 1 week
[2] = 336 h, incubation period 2 weeks, reinoculated weekly
[3] = 504 h, incubation period 3 weeks, reinoculated weekly
[4] = 672 h, incubation period 4 weeks, reinoculated weekly

MIC [1]	MIC [2]	MIC [3]	MIC [4]	SMILES
< 32 µg/mL	< 32 µg/mL	< 32 µg/mL	< 32 µg/mL	C[n+]1sccc1OCc1ccccc1
< 32 µg/mL	< 32 µg/mL	32 µg/mL	32 µg/mL	C=CCOc1ccs[n+]1C
32 µg/mL	64 µg/mL	64 µg/mL	64 µg/mL	COc1ccs[n+]1C
< 32 µg/mL	32 µg/mL	32 µg/mL	32 µg/mL	COc1c(Br)cs[n+]1C
